# Measured values from the supplement of paper PMC6045584.
# ± gives the standard deviation of the averaged measurements.
# Legend:
# [1] = compound: CC1(C)CC(=O)c2c(C(F)(F)F)nn(-c3ccc(C(N)=O)c(N[C@H]4CC[C@H](OC(=O)CN)CC4)c3)c2C1 [SNX-5422]; assay: surviving fraction relative to DMSO-only wells; higher = less growth inhibition; details: exposure time: 5 days
# In short: (§1)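 Luminescence normalised to the median of DMSO-only wells defines surviving fraction, with viability read by CellTiter-Glo. Signal was recorded after 10 minutes at room temperature, once log-phase tumour cell lines seeded at 250–500 cells per well in 384-well plates had spent 24 hours settling and then five days under continuous exposure to inhibitors at 0.5, 1, 5, 10, 50, 100, 500 and 1000 nM.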
# [2] = compound: C=CC(=O)Nc1cc2c(Nc3ccc(F)c(Cl)c3)ncnc2cc1OCCCN1CCOCC1 [CANERTINIB]; assay: as above; details: exposure time: 5 days
# In short: as §1
Test System,surviving fraction ([1]; 0.5 nM),surviving fraction ([1]; 1 nM),surviving fraction ([1]; 5 nM),surviving fraction ([1]; 10 nM),surviving fraction ([1]; 50 nM),surviving fraction ([1]; 100 nM),surviving fraction ([1]; 500 nM),surviving fraction ([1]; 1000 nM),surviving fraction ([2]; 0.5 nM),surviving fraction ([2]; 1 nM),surviving fraction ([2]; 5 nM),surviving fraction ([2]; 10 nM),surviving fraction ([2]; 50 nM),surviving fraction ([2]; 100 nM),surviving fraction ([2]; 500 nM),surviving fraction ([2]; 1000 nM)
SUM44 BREAST,1.02 ± 0.035,0.987 ± 0.043,0.974 ± 0.013,0.867 ± 0.024,0.604 ± 0.015,0.589 ± 0.04,0.495 ± 0.041,0.471 ± 0.048,0.778 ± 0.15,0.719 ± 0.22,0.797 ± 0.16,0.796 ± 0.18,1.05 ± 0.063,0.948 ± 0.16,0.84 ± 0.14,0.778 ± 0.12
HS578T BREAST,1.07 ± 0.13,0.93 ± 0.099,0.871 ± 0.056,0.992 ± 0.22,0.387 ± 0.044,0.466 ± 0.021,0.298 ± 0.037,0.245 ± 0.029,0.851 ± 0.12,0.857 ± 0.1,0.873 ± 0.066,0.785 ± 0.038,1.04 ± 0.14,1 ± 0.11,0.918 ± 0.11,0.738 ± 0.14
HU09 BONE,1.02 ± 0.032,0.991 ± 0.095,1.03 ± 0.15,0.701 ± 0.017,0.0323 ± 0.0029,0.023 ± 0.0017,0.0257 ± 0.0021,0.03 ± 0.002,0.807 ± 0.14,0.891 ± 0.066,0.977 ± 0.058,0.904 ± 0.079,1.02 ± 0.086,1.02 ± 0.081,0.766 ± 0.033,0.478 ± 0.027
SCC36 HEADNECK,1.05 ± 0.13,1.11 ± 0.086,1.19 ± 0.13,1.19 ± 0.089,0.434 ± 0.067,0.27 ± 0.041,0.0367 ± 0.0064,0.039 ± 0.004,0.715 ± 0.044,0.747 ± 0.059,0.645 ± 0.054,0.753 ± 0.016,0.741 ± 0.039,0.747 ± 0.045,0.328 ± 0.023,0.329 ± 0.035
ZR751 BREAST,1.04 ± 0.12,1.45 ± 0.57,1.08 ± 0.11,1.34 ± 0.18,0.652 ± 0.071,0.513 ± 0.036,0.218 ± 0.024,0.217 ± 0.017,0.993 ± 0.042,0.957 ± 0.044,0.948 ± 0.052,0.957 ± 0.093,0.802 ± 0.026,0.77 ± 0.062,0.648 ± 0.052,0.618 ± 0.029
HS57T BREAST,1.1 ± 0.014,1.09 ± 0.046,1.15 ± 0.034,1.13 ± 0.034,0.215 ± 0.011,0.22 ± 0.016,0.127 ± 0.0093,0.126 ± 0.0052,0.946 ± 0.044,0.899 ± 0.047,0.893 ± 0.11,0.911 ± 0.02,0.919 ± 0.081,0.908 ± 0.012,0.843 ± 0.047,0.692 ± 0.02
MG63 BONE,1.04 ± 0.035,1.03 ± 0.047,1.09 ± 0.037,1.11 ± 0.053,0.496 ± 0.026,0.351 ± 0.029,0.13 ± 0.0085,0.136 ± 0.013,0.947 ± 0.015,0.919 ± 0.016,0.9893 ± 0.007,0.971 ± 0.013,1.02 ± 0.014,1.02 ± 0.011,0.993 ± 0.025,1 ± 0.022
VP229 BREAST,1.286 ± 0.012,1.15 ± 0.17,1.12 ± 0.08,1.03 ± 0.16,0.612 ± 0.034,0.628 ± 0.1,0.0873 ± 0.019,0.088 ± 0.011,0.724 ± 0.051,0.682 ± 0.085,0.638 ± 0.11,0.514 ± 0.061,0.467 ± 0.021,0.42 ± 0.033,0.201 ± 0.019,0.154 ± 0.044
SG27 HEADNECK,1.04 ± 0.13,1.06 ± 0.13,1 ± 0.14,1.06 ± 0.079,1.68 ± 0.3,1.26 ± 0.088,0.071 ± 0.017,0.0733 ± 0.046,1.03 ± 0.15,1.06 ± 0.054,1.03 ± 0.067,0.883 ± 0.1,1.01 ± 0.1,0.999 ± 0.028,0.96 ± 0.13,0.894 ± 0.08
SCC003 HEADNECK,1.16 ± 0.017,1.15 ± 0.12,1.16 ± 0.081,1.13 ± 0.054,0.608 ± 0.023,0.384 ± 0.091,0.0973 ± 0.004,0.0767 ± 0.0055,0.691 ± 0.065,0.867 ± 0.032,0.897 ± 0.054,0.775 ± 0.014,0.899 ± 0.075,0.8 ± 0.075,0.718 ± 0.036,0.434 ± 0.061
SYO1 SYNOVIAL,1.03 ± 0.031,0.993 ± 0.089,1.02 ± 0.016,0.846 ± 0.059,0.122 ± 0.049,0.0776 ± 0.021,0.0327 ± 0.0032,0.0335 ± 0.0013,0.836 ± 0.061,0.791 ± 0.045,0.793 ± 0.027,0.784 ± 0.029,0.86 ± 0.029,0.871 ± 0.038,0.666 ± 0.019,0.498 ± 0.022
SUM159 BREAST,1.11 ± 0.11,1.13 ± 0.098,1.16 ± 0.17,1.15 ± 0.17,0.6 ± 0.084,0.316 ± 0.015,0.064 ± 0.0036,0.0623 ± 0.0015,0.973 ± 0.011,0.961 ± 0.028,0.948 ± 0.028,0.9347 ± 0.0076,0.9437 ± 0.0046,0.942 ± 0.022,0.916 ± 0.012,0.9197 ± 0.009
HCC1806 BREAST,1.15 ± 0.15,1.04 ± 0.064,1.12 ± 0.012,1.07 ± 0.07,0.05 ± 0.0085,0.03 ± 0.001,0.029,0.035 ± 0.001,0.803 ± 0.11,0.688 ± 0.12,0.738 ± 0.081,0.706 ± 0.022,0.738 ± 0.12,0.639 ± 0.027,0.442 ± 0.043,0.328 ± 0.037
MDAMB468 BREAST,1.038 ± 0.0097,1.05 ± 0.097,1.1 ± 0.043,1.033 ± 0.009,0.138 ± 0.013,0.164 ± 0.021,0.221 ± 0.026,0.207 ± 0.031,0.866 ± 0.035,0.837 ± 0.087,0.841 ± 0.087,0.777 ± 0.054,0.789 ± 0.068,0.72 ± 0.07,0.478 ± 0.029,0.382 ± 0.017
VCAP PROSTATE,1.13 ± 0.051,1.03 ± 0.057,1.08 ± 0.081,1.15 ± 0.086,0.279 ± 0.024,0.141 ± 0.0038,0.165 ± 0.0055,0.161 ± 0.013,0.902 ± 0.036,0.904 ± 0.026,0.954 ± 0.046,0.935 ± 0.12,1.19 ± 0.083,1.17 ± 0.1,0.859 ± 0.09,0.737 ± 0.037
HELA CERVIX,1.08 ± 0.049,1.1 ± 0.031,1.09 ± 0.071,1.03 ± 0.028,1.2 ± 0.016,0.672 ± 0.081,0.228 ± 0.028,0.113 ± 0.016,0.9167 ± 0.0022,0.8778 ± 0.0083,0.888 ± 0.024,0.865 ± 0.023,1.04 ± 0.084,0.979 ± 0.074,1.02 ± 0.074,1 ± 0.039
A549 LUNG,1 ± 0.046,1.01 ± 0.053,1.01 ± 0.043,0.99 ± 0.045,0.895 ± 0.057,0.349 ± 0.046,0.0613 ± 0.0031,0.058 ± 0.0095,0.915 ± 0.018,0.909 ± 0.018,0.93 ± 0.014,0.873 ± 0.01,0.955 ± 0.046,0.965 ± 0.026,0.9707 ± 0.0042,0.948 ± 0.05
SG32 HEADNECK,1.35 ± 0.39,1.17 ± 0.21,1.08 ± 0.18,1.29 ± 0.14,0.257 ± 0.035,0.14 ± 0.011,0.0353 ± 0.0084,0.0353 ± 0.004,0.647 ± 0.084,0.826 ± 0.11,0.778 ± 0.12,0.839 ± 0.094,0.786 ± 0.15,0.703 ± 0.14,0.577 ± 0.09,0.501 ± 0.031
